Assay results: patent publication US5760036A, “Aminediol protease inhibitors” (E. R. Squibb & Sons, Inc., priority 1995, dated 1998)
Where a name gives a salt, the structure may show the parent alone.

Key:
HIV protease = target: T1, HIV protease (Human immunodeficiency virus type 1 group M subtype B, UniProt P04585); assay: HIV Protease Assay; type: biochemical; conditions: 4% DMSO, 450 μM substrate, pH 5.5, 30 minutes at 37° C., RP-HPLC; for inhibition at 10 µM: pH 5.5, 10 μM inhibitor, read-out: HIV Protease % Inhibition at 10 μM
T1 construct: and purified protease
Procedure, shortened: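 At a single final concentration of 10 μM (4% DMSO), inhibitors were added to a 30-minute, 37° C reaction of purified enzyme with 450 μM H2N-Val-Ser-Gln-Asn-(β-naphthyl-alanine)-Pro-Val-Ile-OH at pH 5.5 (sodium acetate, BSA). Hydrolysis was quantified by reverse-phase HPLC with 220 nm detection after acid quench.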

[1] = system: RF strain of HIV (CEM-SS cells); assay: Cell Culture Anti-HIV Activity (cell viability, formazan); type: cell-based; conditions: Human immunodeficiency virus 1, CEM-SS, 144 h, CEM-SS cells, RF strain of HIV, multiplicity of infection 0.04, 6 days at 37° C., 450 nm; read-out: HIV (CEM Cells) IC50
Procedure, shortened: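 Half-log compound dilutions added to CEM-SS cells (5000/well) carrying HIV RF (MOI 0.04), 6 days, 37° C. Cell protection measured as formazan from tetrazolium, A450. IC50: drug level restoring infected-cell formazan to 50% of the uninfected untreated control.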

inhibition at 10 µM (HIV protease)	HIV Protease % Inhibition at 10 μM (HIV protease; 10 μM inhibitor)	SMILES	IC50 [1]
100%		CC(C)(C)OC(=O)N[C@@H](Cc1ccccc1)[C@H](O)CNC[C@@H](O)[C@H](Cc1ccc(OCCc2ccccn2)cc1)NC(=O)OC(C)(C)CO [Compound 282, [1S-[1R*,2S*(2S*,3R*)]]-[3-[[3-[[(1,1-Dimethylethoxy)carbonyl]amino]-2-hydroxy-4-phenylbutyl]amino]-2-hydroxy-1-[[4-[2-(2-pyridinyl)ethoxy]phenyl]methyl]propyl]carbamic acid, 2-hydroxy-1,1-dimethylethyl ester]	60 nM
	97%	CC(C)(C)OC(=O)N[C@@H](Cc1ccccc1)[C@H](O)CNC[C@@H](O)[C@H](Cc1ccccc1)NC(=O)C1NC(=O)CC1(C)C (single isomer, unassigned) [Compound 267, [1S-[1R*,2S*(2S*,3R*)]]-[3-[[3-[[(3,3-Dimethyl-5-oxo-2-pyrrolidinyl)carbonyl]amino]-2-hydroxy-4-phenylbutyl]amino]-2-hydroxy-l-(phenylmethyl)propyl]carbamic acid, 1,1-dimethylethyl ester]	180 nM
100%		CC(C)[C@H](NC(=O)OCc1nc(-c2ccccc2)c[nH]1)C(=O)N[C@@H](Cc1ccccc1)[C@H](O)CNC[C@@H](O)[C@H](Cc1ccccc1)NC(=O)OC(C)(C)C (relative stereo) [Compound 265, [1R*,2S*(2S*,3R*)]-N-[3-[[3-[[(1,1-Dimethylethoxy)carbonyl]amino]-2-hydroxy-4-phenylbutyl]amino]-2-hydroxy-1-(phenylmethyl)propyl]-N^2-[[(4-phenyl-1H-imidazol-2-yl)methoxylcarbonyl]-L-valinamide]	2600 nM
98%		CC(C)(CO)OC(=O)N[C@@H](Cc1ccccc1)[C@H](O)CNC[C@@H](O)[C@H](Cc1ccccc1)NC(=O)C1(O)CCCC1(C)C (single isomer, unassigned; isomer a) [Compound 368, [1S-[1R*,2S*(2S*,3R*)] -[3-[[3-[[(2,2-Dimethyl-1-hydroxycyclopentyl)-carbonyl]amino]-2-hydroxy-4-phenylbutyl]amino]-2-hydroxy-1-(phenylmethyl)propyl]carbamic acid, 2-hydroxy-1,1-dimethylethyl ester, isomer A]	17 nM
95%		CC(C)[C@H](NC(=O)OC[C@@H](O)CO)C(=O)N[C@@H](Cc1ccccc1)[C@H](O)CNC[C@@H](O)[C@H](Cc1ccccc1)NC(=O)OC(C)(C)C (relative stereo) [Compound 202, [[1R*,2S*(2S*,3R*)],N^2-(R*)]-N^2-[(2,3-Dihydroxypropoxy)carbonyl]-N-[3-[[3-[[(1,1-dimethylethoxy)carbonyl]amino]-2-hydroxy-4-phenylbutyl]amino]-2-hydroxy-1-(phenylmethyl)propyl]-L-valinamide]	16000 nM
99%		CC(C)[C@H](NC(=O)Cc1nc2ccccc2[nH]1)C(=O)N[C@@H](Cc1ccccc1)[C@H](O)CNC[C@@H](O)[C@H](Cc1ccccc1)NC(=O)OC(C)(C)C (relative stereo) [Compound 105, S-[1R*,2S*(2S*,3R*)]-N-[3-[[3-[[(1,1-Dimethylethoxy)carbonyl]amino]-2-hydroxy-4-phenylbutyl]amino]-2-hydroxy-1-(phenylmethyl)-propyl]-N^2-(1H-benzimidazol-2-ylacetyl)-L-valinamide]	1600 nM
98%		CC(C)(C)OC(=O)N[C@@H](Cc1ccccc1)[C@H](O)CNC[C@@H](O)[C@H](Cc1ccc(OCC(=O)O)cc1)NC(=O)OC(C)(C)C [Compound 346, [1S-[1R*,2S*(2S*,3R*)]-[4-[4-(Carboxymethoxy)phenyl)-3-[[3-[[1,1-dimethylethoxy)carbonyl]amino]-2-hydroxy-1-(phenylmeyhyl)propyl)carbamic acid, 1, 1dimethylethyl ester]	> 50000 nM
100%		CC(C)[C@H](NC(=O)[C@H](C)N)C(=O)N[C@@H](Cc1ccccc1)[C@H](O)CNC[C@@H](O)[C@H](Cc1ccccc1)NC(=O)OC(C)(C)C [Compound 96, [S-[1R*,2S*(2S*,3R*)]-N-]3-[[3-[[(1,1-Dimethylethoxy)carbonyl]amino]-2-hydroxy-4-phenylbutyl]amino]-2-hydroxy-1(phenylmethyl)propyl]-N^2-(L-alanyl)-L-valinamide, fumarate salt]	> 7600 nM
100%		CC(C)[C@H](NC(=O)OC1CCc2ccccc21)C(=O)N[C@@H](Cc1ccccc1)[C@H](O)CNC[C@@H](O)[C@H](Cc1ccccc1)NC(=O)OC(C)(C)C (stereo partly drawn) [Compound 67, [S-[1R*,2S*(2S*,3R*)]]-N^2-[[2,3-Dihydro-1H-inden-1-yl)oxy]carbonyl]-N-[3-[[3-[[(1,1-dimethylethoxy)carbonyl]amino]-2-hydroxy-4-phenylbutyl]amino]-2-hydroxy-1-(phenylmethyl)propyl]-L-valinamide]	40 nM
98%		CC(C)(C)OC(=O)N[C@@H](Cc1ccccc1)[C@H](O)CNC[C@@H](O)[C@H](Cc1ccccc1)NC(=O)O[C@H]1CCc2ccccc21 [Compound 146, [1S-(1R*,2S*)]-[Iminobis[2-hydroxy-1-(phenylmethyl)-3,1-propanediyl)]biscarbamic acid, 1,1-dimethylethyl(S)-2,3-dihydro-1H-inden-1-yl ester]	≥ 3000 nM
61%		COCC(C)(C)OC(=O)N[C@@H](Cc1ccccc1)[C@H](O)CNC[C@@H](O)[C@H](Cc1ccccc1)NC(=O)OC(C)(C)C [Compound 168, [R-(R*,S*)]-[Iminobis[2-hydroxy-1-(phenylmethyl)-3,1-propanediyl)biscarbamic acid, 1,1-dimethylethyl 2-methoxy-1,1-dimethylethyl ester]	1400 nM
3%		CC(C)(C)OC(=O)N[C@@H](Cc1ccccc1)C(=O)N[C@@H](Cc1ccccc1)[C@H](O)CNC[C@@H](O)[C@H](Cc1ccccc1)NC(=O)[C@H](Cc1ccccc1)NC(=O)OC(C)(C)C [Compound 38, [S-(1R*,2S*)]-[Iminobis[2-hydroxy-1-(phenylmethyl)-3,1-propanediyl]]-bisimino-bis[N^2-[(1,1-dimethylethoxy)carbonyl]-L-phenyl-alaninamide]]	> 4000 nM
99%		CC(C)(C)OC(=O)N[C@@H](Cc1ccccc1)[C@H](O)CNC[C@@H](O)[C@H](Cc1ccc(OCc2nc3ccccc3o2)cc1)NC(=O)OC(C)(C)C [Compound 242, [1S-[1R*,2S*(2S*,3R*)]]-[3-[[4-[4-[(2-Benzoxazolyl)methoxy]phenyl]-3-[[(1,1-dimethylethoxy)carbonyl]amino]-2-hydroxybutyl]amino]-2-hydroxy-1-(phenylmethyl)propyl]carbamic acid, 1,1-dimethylethyl ester]	110 nM
10%		CN(CC(O)[C@H](Cc1ccccc1)NC(=O)OC(C)(C)C)C[C@@H](O)[C@H](Cc1ccccc1)NC(=O)OC(C)(C)C (stereo partly drawn) [Compound 198, [1S-[1R*,2S*(3R*)]]-[3-[[3-[[(1,1-Dimethylethoxy)carbonyl]-amino]-2-hydroxy-4-phenylbutyl]-methylamino]-2-hydroxy-1-(phenylmethyl)propyl]-carbamic acid, 1,1-dimethylethyl ester]	> 14000 nM
